This is an account of results in patent US8846658B2, “Oxazine derivatives and their use in the treatment of neurological disorders” (Novartis AG, priority 2009, dated 2014).

SMILES strings stand for the structures. Where a name gives a salt, the structure may show the parent alone.

The test is described as follows: Test 4: Inhibition of cellular release of amyloid peptide 1-40. It is filed as cell-based, Chinese hamster. To be noted: Cricetulus griseus; Test 4, CHO cells transfected with APP, 24 hours with test compound, amyloid peptide 1-40 in supernatant; read-out: Bace IC50. The protocol:
Test 4: Inhibition of Cellular Release of Amyloid Peptide 1-40
Chinese hamster ovary cells are transfected with the gene for amyloid precursor protein. The cells are plated at a density of 8000 cells/well into 96-well microtiter plates and cultivated for 24 hours in DMEM cell culture medium containing 10% FCS. The test compound is added to the cells at various concentrations, and the cells are cultivated for 24 hours in the presence of the test compound. The supernatants are collected, and the concentration of amyloid peptide 1-40 is determined using state of the art immunoassay techniques, for example sandwich ELISA, homogenous time-resolved fluorescence (HTRF) immunoassay, or electro-chemiluminescence immunoassay.
Turning to `Cl.[2H]c1nc(C(=O)Nc2ccc(F)c([C@]3(C(F)F)COCC(N)=N3)c2)c(C([2H])([2H])[2H])c([2H])c1Br` [Example 116, 5-Bromo-4,6-dideutero-3-trideuteromethyl-pyridine-2-carboxylic acid [3-((R)-5-amino-3-difluoromethyl-3,6-dihydro-2H-[1,4]oxazin-3-yl)-4-fluoro-phenyl]-amide hydrochloride], the half-inhibitory concentration (IC50) was found to be 4 nM. Under `COc1cnc(C(=O)Nc2ccc(F)c([C@]3(C(F)F)COCC(N)=N3)c2)c(N)n1` [Example 175] stands 4 nM. Under `C[C@@]1(c2cccc(NC(=O)c3ccc(Br)cn3)c2)COCC(N)=N1` [Example 3, 5-Bromo-pyridine-2-carboxylic acid [3-((R)-5-amino-3-methyl-3,6-dihydro-2H-[1,4]oxazin-3-yl)-phenyl]-amide hydrochloride] stands 17 nM; under `Cc1cc(C#N)cnc1C(=O)Nc1ccc(F)c([C@]2(C(F)F)COCC(N)=N2)c1` [Example 144, 5-Cyano-3-methyl-pyridine-2-carboxylic acid [3-((R)-5-amino-3-difluoromethyl-3,6-dihydro-2H-[1,4]oxazin-3-yl)-4-fluoro-phenyl]-amide], 6 nM. `C[C@@]1(c2cc(NC(=O)c3ncc(Br)cn3)ccc2F)CO[C@@](C)(C(F)(F)F)C(N)=N1` [Example 71, 5-Bromo-pyrimidine-2-carboxylic acid [3-((3R,6R)-6-amino-3,6-dimethyl-6-trifluoromethyl-3,6-dihydro-2H-[1,4]oxazin-3-yl)-4-fluoro-phenyl]-amide hydrochloride]: the concentration for half-maximal inhibition (IC50) was 4 nM. The figure for `Cc1cc(Br)cnc1C(=O)Nc1ccc(F)c(C2(C)COCC(N)=N2)c1` (stereo not shown) [Example 64] is 4 nM. In the case of `N#Cc1ccc(C(=O)Nc2ccc(F)c([C@]3(C(F)F)COCC(N)=N3)c2)nc1` [Example 112, 5-Cyano-pyridine-2-carboxylic acid [3-((R)-5-amino-3-difluoromethyl-3,6-dihydro-2H-[1,4]oxazin-3-yl)-4-fluoro-phenyl]-amide hydrochloride], the IC50 came out at 7 nM. On to `NC1=NC(c2cc(NC(=O)c3ccc(Br)cn3)ccc2F)(C(F)(F)F)CCOC1` (stereo not shown) [Example 99, 5-Bromo-pyridine-2-carboxylic acid [3-(3-amino-5-trifluoromethyl-2,5,6,7-tetrahydro-[1,4]oxazepin-5-yl)-4-fluoro-phenyl]-amide hydrochloride], for which the half-maximal inhibitory concentration (IC50) is 100 nM. The figure for `CC#CCOc1cnc(C(=O)Nc2ccc(F)c([C@]3(C(F)F)COCC(N)=N3)c2)cn1` [Example 164] is 1 nM; for `[2H]c1nc(C(=O)Nc2ccc(F)c([C@]3(C(F)F)COCC(N)=N3)c2)c(C([2H])([2H])[2H])c([2H])c1C#N` [Example 147, 5-Cyano-4,6-dideutero-3-trideuteromethyl-pyridine-2-carboxylic acid [3-((R)-5-amino-3-difluoromethyl-3,6-dihydro-2H-[1,4]oxazin-3-yl)-4-fluoro-phenyl]-amide] it is 8 nM.
